Measured values taken from the NIST ThermoML archive (doi:10.1016/j.jct.2018.02.014).
Numbers after ± are expanded uncertainties.

Assay: activity coefficient (dimensionless); of the first substance listed, at infinite dilution; xn = mol fraction of the nth substance listed
Settings: 101.33 kPa, Liquid, Chromatography, x1 = 0

activity coefficient (328.15 K) | activity coefficient (338.15 K) | activity coefficient (348.15 K) | activity coefficient (358.15 K) | activity coefficient (368.15 K) | activity coefficient (318.15 K) | activity coefficient (298.15 K) | activity coefficient (308.15 K) | SMILES
33.1 ± 2.3 | 34.4 ± 2.4 | 35.6 ± 2.4 | 36.8 ± 2.5 | 38 ± 2.6 | – | – | – | COC(C)(C)C [2-methoxy-2-methylpropane] + CC[N+]1(C)CCOCC1.N#CN=C=[N-]
3.02 ± 0.21 | 2.98 ± 0.2 | 2.94 ± 0.2 | 2.9 ± 0.2 | 2.86 ± 0.19 | 3.08 ± 0.21 | – | – | CCCCO [butan-1-ol] + CC[N+]1(C)CCOCC1.N#CN=C=[N-]
105 ± 7 | 108 ± 7 | 111 ± 8 | 113 ± 8 | 116 ± 8 | – | – | – | CCOC(C)(C)C [2-ethoxy-2-methylpropane] + CC[N+]1(C)CCOCC1.N#CN=C=[N-]
3.02 ± 0.21 | 3.18 ± 0.22 | 3.34 ± 0.23 | 3.5 ± 0.24 | 3.65 ± 0.25 | 2.86 ± 0.2 | – | – | COC(C)=O [methyl ethanoate] + CC[N+]1(C)CCOCC1.N#CN=C=[N-]
1010 ± 70 | 903 ± 62 | 814 ± 56 | 737 ± 51 | 672 ± 46 | 1130 ± 78 | – | – | CCCCCCCC [octane] + CC[N+]1(C)CCOCC1.N#CN=C=[N-]
2.36 ± 0.16 | 2.48 ± 0.17 | 2.59 ± 0.18 | 2.71 ± 0.18 | 2.82 ± 0.19 | 2.24 ± 0.15 | – | – | c1ccsc1 [thiophene] + CC[N+]1(C)CCOCC1.N#CN=C=[N-]
4.7 ± 0.32 | 4.63 ± 0.32 | 4.56 ± 0.31 | 4.49 ± 0.31 | 4.43 ± 0.3 | 4.78 ± 0.33 | – | – | CCCCCO [pentan-1-ol] + CC[N+]1(C)CCOCC1.N#CN=C=[N-]
55.7 ± 3.8 | 57.9 ± 4 | 60 ± 4.1 | 62.2 ± 4.3 | 64.3 ± 4.4 | – | – | – | CCC(C)(C)OC [2-methoxy-2-methylbutane] + CC[N+]1(C)CCOCC1.N#CN=C=[N-]
2 ± 0.14 | 1.99 ± 0.14 | 1.97 ± 0.13 | 1.96 ± 0.13 | 1.95 ± 0.13 | 2.02 ± 0.14 | – | – | CC(C)O [propan-2-ol] + CC[N+]1(C)CCOCC1.N#CN=C=[N-]
1.85 ± 0.12 | 1.84 ± 0.12 | 1.84 ± 0.12 | 1.84 ± 0.12 | 1.83 ± 0.12 | 1.85 ± 0.12 | – | – | CCCO [propan-1-ol] + CC[N+]1(C)CCOCC1.N#CN=C=[N-]
1070 ± 74 | 960 ± 66 | 865 ± 60 | 785 ± 54 | 718 ± 49 | 1200 ± 83 | – | – | C=CCCCCCCCC [1-decene] + CC[N+]1(C)CCOCC1.N#CN=C=[N-]
0.631 ± 0.044 | 0.645 ± 0.044 | 0.659 ± 0.045 | 0.672 ± 0.046 | 0.684 ± 0.046 | 0.617 ± 0.043 | – | – | CO [methanol] + CC[N+]1(C)CCOCC1.N#CN=C=[N-]
853 ± 59 | 768 ± 53 | – | – | – | 951 ± 66 | 1220 ± 84 | 1070 ± 74 | CC(C)CC(C)(C)C [2,2,4-trimethylpentane] + CC[N+]1(C)CCOCC1.N#CN=C=[N-]
9.53 ± 0.65 | 9.79 ± 0.67 | 10 ± 0.7 | 10.3 ± 0.7 | 10.5 ± 0.7 | 9.27 ± 0.63 | – | – | CCCC(=O)OC [methyl butanoate] + CC[N+]1(C)CCOCC1.N#CN=C=[N-]
– | – | – | – | – | 482 ± 33 | 608 ± 42 | 539 ± 37 | CCCCCC [hexane] + CC[N+]1(C)CCOCC1.N#CN=C=[N-]
110 ± 8 | 112 ± 8 | 114 ± 8 | 116 ± 8 | 119 ± 8 | – | – | – | CCCOCCC [dipropyl ether] + CC[N+]1(C)CCOCC1.N#CN=C=[N-]
25.6 ± 1.8 | 26.4 ± 1.8 | 27.4 ± 1.9 | 28.1 ± 1.9 | 28.9 ± 2 | 24.8 ± 1.7 | – | – | C#CCCCC [1-hexyne] + CC[N+]1(C)CCOCC1.N#CN=C=[N-]
15.3 ± 1 | 15.5 ± 1.1 | 15.7 ± 1.1 | 15.8 ± 1.1 | 16 ± 1.1 | 15.1 ± 1 | – | – | CCc1ccccc1 [ethylbenzene] + CC[N+]1(C)CCOCC1.N#CN=C=[N-]
46.3 ± 3.2 | 47.6 ± 3.3 | 49 ± 3.4 | 50.3 ± 3.4 | 51.6 ± 3.5 | 44.9 ± 3.1 | – | – | C#CCCCCC [1-heptyne] + CC[N+]1(C)CCOCC1.N#CN=C=[N-]
263 ± 18 | 242 ± 17 | 224 ± 15 | 208 ± 14 | 194 ± 13 | 288 ± 20 | – | – | CC1CCCCC1 [methylcyclohexane] + CC[N+]1(C)CCOCC1.N#CN=C=[N-]
29.1 ± 2 | 29.1 ± 2 | 29.1 ± 2 | 29.2 ± 2 | 29.2 ± 2 | 29.2 ± 2 | – | – | CCCc1ccccc1 [propylbenzene] + CC[N+]1(C)CCOCC1.N#CN=C=[N-]
26.9 ± 1.8 | 26.9 ± 1.8 | 26.9 ± 1.8 | 26.9 ± 1.8 | 26.9 ± 1.8 | 27 ± 1.8 | – | – | CC(C)c1ccccc1 [isopropylbenzene] + CC[N+]1(C)CCOCC1.N#CN=C=[N-]
645 ± 44 | 574 ± 40 | – | – | – | 729 ± 50 | 953 ± 66 | 831 ± 57 | CCCCCCC [heptane] + CC[N+]1(C)CCOCC1.N#CN=C=[N-]
11.1 ± 0.8 | 11.6 ± 0.8 | 12.1 ± 0.8 | 12.6 ± 0.9 | 13.1 ± 0.9 | 10.5 ± 0.7 | – | – | C=C(C)c1ccccc1 [(1-methylethenyl)benzene] + CC[N+]1(C)CCOCC1.N#CN=C=[N-]
4.62 ± 0.31 | 4.76 ± 0.32 | 4.91 ± 0.33 | 5.05 ± 0.34 | 5.2 ± 0.35 | 4.46 ± 0.3 | – | – | c1ccccc1 [benzene] + CC[N+]1(C)CCOCC1.N#CN=C=[N-]
1.2 ± 0.08 | 1.21 ± 0.08 | 1.21 ± 0.08 | 1.22 ± 0.08 | 1.22 ± 0.08 | 1.2 ± 0.08 | – | – | CCO [ethanol] + CC[N+]1(C)CCOCC1.N#CN=C=[N-]
5.26 ± 0.36 | 5.45 ± 0.37 | 5.63 ± 0.38 | 5.81 ± 0.4 | 5.98 ± 0.41 | 5.08 ± 0.35 | – | – | CCCC(C)=O [pentan-2-one] + CC[N+]1(C)CCOCC1.N#CN=C=[N-]
2030 ± 140 | 1880 ± 130 | 1740 ± 120 | 1610 ± 110 | 1500 ± 100 | 2230 ± 150 | – | – | CCCCCCCCCC [decane] + CC[N+]1(C)CCOCC1.N#CN=C=[N-]

SMILES | activity coefficient (328.15 K) | activity coefficient (338.15 K) | activity coefficient (348.15 K) | activity coefficient (358.15 K) | activity coefficient (368.15 K) | activity coefficient (318.15 K) | activity coefficient (298.15 K) | activity coefficient (308.15 K)
c1ccncc1 [pyridine] + CC[N+]1(C)CCOCC1.N#CN=C=[N-] | 1.81 ± 0.12 | 1.88 ± 0.13 | 1.96 ± 0.13 | 2.03 ± 0.14 | 2.1 ± 0.14 | 1.74 ± 0.12 | – | –
Cc1ccc(C)cc1 [1,4-dimethylbenzene] + CC[N+]1(C)CCOCC1.N#CN=C=[N-] | 13.7 ± 0.9 | 14 ± 1 | 14.3 ± 1 | 14.6 ± 1 | 14.9 ± 1 | 13.4 ± 0.9 | – | –
